Target: T1, human S1P1 receptors (Homo sapiens, UniProt P21453)
T1 construct: expressed in transfected cells; host or cells: HeLa (human cervix carcinoma, ATCC CCL2), HeLa-S1P1/Gα16 cell clone 1
Test: Human S1P Receptor Calcium FLIPR Antagonist Assay, HeLa Gα16 S1P1
Type: cell-based
Conditions: HeLa-S1P1/Gα16 cells; antagonism of Ca2+ signal of probing agonist GNF-AC-1 at EC80
Description: Human S1P Receptor Calcium FLIPR Antagonist Assays
The assay measures intracellular changes of Ca^2+ mediated by the synthetic probing agonist 3-{[2-(2-Trifluoromethyl-biphenyl-4-yl)-benzo[b]thiophen-5-ylmethyl]-amino}-propionic acid (GNF-AC-1) in the HeLa-S1P1/Gα16 cell clone 1: HeLa (human cervix carcinoma, ATCC CCL2) cells stably expressing N-terminally myc-tagged human S1P1 receptors (GenBank™ accession No. NM_001400; UNIPROT P21453) and promiscuous Gα16 protein (GenBank™ accession number M63904, Swissprot P30679) are cultured at 37° C., 5% CO2, and 95% relative humidity. The cells are plated in 384 well black plates (10,000 cells per well). After 24 hours the cells are loaded with Fluo4-AM (1.6 μM in HBSS and 2.5 mM probenicid) for 1 hour at 37° C. After washing, the cells are transferred to the FLIPR. The test compounds are added at different concentrations (≦30 μM) in HBSS in the presence of 0.1% BSA and changes in fluorescence are recorded (indication of agonism). The probing agonist is added 15 minutes afterwards to the wells at a concentration giving 80% of the maximal activity (EC80). After each addition time points are collected as follows: 20 time points (2 seconds) before the addition of the agonist (Fmin) and 60 time points (1 or 2 seconds) after the addition of the probing agonist. This allows the determination of the maximal fluorescence (Fmax). The ratio (Fmax-Fmin)/Fmin is plotted against the log of the concentration of the test compounds and the IC50 (relative antagonism) is determined with the help of XLfit-4 software. […] A dose response curve of the probing agonist is determined on each plate in parallel. The compounds of the invention are typically active in this assay at a concentration ranging typically from <1 nM to 30 μM, usually from less than 1 nanomolar to 1 micromolar.

T1 sequence (P21453 whole entry): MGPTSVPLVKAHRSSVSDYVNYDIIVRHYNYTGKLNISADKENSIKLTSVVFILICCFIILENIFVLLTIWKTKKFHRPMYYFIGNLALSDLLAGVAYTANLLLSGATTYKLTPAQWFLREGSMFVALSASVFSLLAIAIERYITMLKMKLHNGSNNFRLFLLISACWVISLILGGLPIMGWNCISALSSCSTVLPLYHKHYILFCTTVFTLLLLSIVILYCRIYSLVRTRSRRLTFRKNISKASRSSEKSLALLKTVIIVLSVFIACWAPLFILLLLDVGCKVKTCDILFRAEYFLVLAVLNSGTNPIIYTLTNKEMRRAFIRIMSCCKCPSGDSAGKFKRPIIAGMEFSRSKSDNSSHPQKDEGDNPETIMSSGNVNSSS

| Compound | IC50 [nM] |
| --- | --- |
| Cc1cc(S(=O)(=O)Nc2cccc(-c3ccc(CN[C@H](CO)C(=O)O)cc3)c2)c(C)cc1Cl [Example 157, (R)-2-{[3′-(4-Chloro-2,5-dimethyl-benzenesulfonylamino)-biphenyl-4-ylmethyl]-amino}-3-hydroxy-propionic acid] | 4.7 |
| Cc1cc(S(=O)(=O)Nc2cccc(-c3ccc(C(=O)N[C@@H](COC(C)(C)C)C(=O)O)c(C)c3)c2)c(C)cc1Cl [Example 48, (S)-3-tert-Butoxy-2-{[3′-(4-chloro-2,5-dimethyl-benzenesulfonylamino)-3-methyl-biphenyl-4-carbonyl]-amino}-propionic acid] | 9 |
| Cc1cc(S(=O)(=O)Nc2cccc(-c3cc(C)c(C(=O)NC4(C(=O)O)CC4)c(C)c3)c2)c(C)cc1Cl [Example 149, 1-{[3′-(4-Chloro-2,5-dimethyl-benzenesulfonylamino)-3,5-dimethyl-biphenyl-4-carbonyl]-amino}-cyclopropanecarboxylic acid] | 1.7 |
| Cc1cc(S(=O)(=O)Nc2cccc(-c3ccc(C(=O)N[C@@H](C)C(=O)O)c(C)c3)c2)c(C)cc1Cl [Example 63, (S)-2-{[3′-(4-Chloro-2,5-dimethyl-benzenesulfonylamino)-3-methyl-biphenyl-4-carbonyl]-amino}-propionic acid] | 1.3 |
| Cc1cc(S(=O)(=O)Nc2cccc(-c3ccc(C(=O)N[C@@H](CO)C(=O)O)c(C)c3)c2)c(C)cc1Cl [Example 45, (S)-2-{[3′-(4-Chloro-2,5-dimethyl-benzenesulfonylamino)-3-methyl-biphenyl-4-carbonyl]-amino}-3-hydroxy-propionic acid] | 1.1 |
| Cc1cc(S(=O)(=O)Nc2cccc(-c3ccc(C(=O)N[C@@H](C)C(=O)O)cc3)c2)c(C)cc1Cl [Example 25, (S)-2-{[3′-(4-Chloro-2,5-dimethyl-benzenesulfonylamino)-biphenyl-4-carbonyl]-amino}-propionic acid] | 8.8 |
| Cc1cc(S(=O)(=O)Nc2cccc(-c3cc(C)c(C(=O)N[C@H](CN)C(=O)O)c(C)c3)c2)c(C)cc1Cl [Example 143, (R)-3-Amino-2-{[3′-(4-chloro-2,5-dimethyl-benzenesulfonylamino)-3,5-dimethyl-biphenyl-4-carbonyl]-amino}-propionic acid] | 5 |
| Cc1cc(S(=O)(=O)Nc2cccc(-c3ccc(C(=O)N[C@H](C(=O)O)[C@H](C)O)c(C)c3)c2)c(C)cc1Cl [Example 59, (2S,3S)-2-{[3′-(4-Chloro-2,5-dimethyl-benzenesulfonylamino)-3-methyl-biphenyl-4-carbonyl]-amino}-3-hydroxy-butyric acid] | 0.7 |
| CC[C@H](NC(=O)c1c(C)cc(-c2cccc(NS(=O)(=O)c3cc(C)c(Cl)cc3C)c2)cc1C)C(=O)O [Example 135, (S)-2-{[3′-(4-Chloro-2,5-dimethyl-benzenesulfonylamino)-3,5-dimethyl-biphenyl-4-carbonyl]-amino}-butyric acid] | 1.7 |
| Cc1cc(S(=O)(=O)Nc2cccc(-c3cc(C)c(C(=O)N[C@@H](C)C(N)=O)c(C)c3)c2)c(C)cc1Cl [Example 151, 3′-(4-Chloro-2,5-dimethyl-benzenesulfonylamino)-3,5-dimethyl-biphenyl-4-carboxylic acid ((S)-1-carbamoyl-ethyl)-amide] | 8 |
| Cc1cc(S(=O)(=O)Nc2cccc(-c3cc(C)c(C(=O)NC4(C(=O)O)CCOCC4)c(C)c3)c2)c(C)cc1Cl [Example 146, 4-{[3′-(4-Chloro-2,5-dimethyl-benzenesulfonylamino)-3,5-dimethyl-biphenyl-4-carbonyl]-amino}-tetrahydro-pyran-4-carboxylic acid] | 2 |
| CCc1cc(-c2cccc(NS(=O)(=O)c3cc(C)c(Cl)cc3C)c2)ccc1C(=O)N[C@@H](C)C(=O)O [Example 154, (S)-2-{[3′-(4-Chloro-2,5-dimethyl-benzenesulfonylamino)-3-ethyl-biphenyl-4-carbonyl]-amino}-propionic acid] | 1.7 |
| Cc1cc(S(=O)(=O)Nc2cccc(-c3cc(C)c(C(=O)N(C)[C@@H](CO)C(=O)O)c(C)c3)c2)c(C)cc1Cl [Example 138, (S)-2-{[3′-(4-Chloro-2,5-dimethyl-benzenesulfonylamino)-3,5-dimethyl-biphenyl-4-carbonyl]-methyl-amino}-3-hydroxy-propionic acid] | 1.1 |
| Cc1cc(S(=O)(=O)Nc2cccc(-c3ccc(C(=O)N[C@H](CO)C(=O)O)c(C)c3)c2)c(C)cc1Cl [Example 46, (R)-2-{[3′-(4-Chloro-2,5-dimethyl-benzenesulfonylamino)-3-methyl-biphenyl-4-carbonyl]-amino}-3-hydroxy-propionic acid] | 0.8 |
| Cc1cc(S(=O)(=O)Nc2cccc(-c3cc(C)c(C(=O)N(C)[C@@H](C)C(=O)O)c(C)c3)c2)c(C)cc1Cl [Example 139, (S)-2-{[3′-(4-Chloro-2,5-dimethyl-benzenesulfonylamino)-3,5-dimethyl-biphenyl-4-carbonyl]-methyl-amino}-propionic acid] | 1.1 |
| Cc1cc(S(=O)(=O)Nc2cccc(-c3ccc(C(=O)NC4(C(=O)O)CN(C)C4)c(C)c3)c2)c(C)cc1Cl [Example 55, 3-{[3′-(4-Chloro-2,5-dimethyl-benzenesulfonylamino)-3-methyl-biphenyl-4-carbonyl]-amino}-1-methyl-azetidine-3-carboxylic acid] | 5 |
| CC[C@H](NC(=O)c1ccc(-c2cccc(NS(=O)(=O)c3cc(C)c(Cl)cc3C)c2)cc1C)C(=O)O [Example 62, (S)-2-{[3′-(4-Chloro-2,5-dimethyl-benzenesulfonylamino)-3-methyl-biphenyl-4-carbonyl]-amino}-butyric acid] | 0.5 |
| CC(=O)N1CC(NC(=O)c2ccc(-c3cccc(NS(=O)(=O)c4cc(C)c(Cl)cc4C)c3)cc2C)(C(=O)O)C1 [Example 56, 1-Acetyl-3-{[3′-(4-chloro-2,5-dimethyl-benzenesulfonylamino)-3-methyl-biphenyl-4-carbonyl]-amino}-azetidine-3-carboxylic acid] | 5 |
| Cc1cc(S(=O)(=O)Nc2cccc(-c3ccc(C(=O)NCC(=O)O)c(C)c3)c2)c(C)cc1Cl [Example 64, {[3′-(4-Chloro-2,5-dimethyl-benzenesulfonylamino)-3-methyl-biphenyl-4-carbonyl]-amino}-acetic acid] | 1.3 |
| Cc1cc(S(=O)(=O)Nc2cccc(-c3cc(C)c(C(=O)N[C@@H](CO)C(=O)O)c(C)c3)c2)c(C)cc1Cl [Example 131, (S)-2-{[3′-(4-Chloro-2,5-dimethyl-benzenesulfonylamino)-3,5-dimethyl-biphenyl-4-carbonyl]-amino}-3-hydroxy-propionic acid] | 0.6 |

Reference: patent publication US20100029609A1 (priority 2006, published 2010)
